Results as given in article PMC11696749, “Deep Multitask Learning-Driven Discovery of New Compounds Targeting Leishmania infantum” (ACS Omega, 2024).
Where two headings read alike, the source gives them in different places.

How the values were obtained:
[1] = tested on: L. infantum (MHOM/BR/2002/LPC-RPV) promastigotes; test: In vitro antileishmanial activity against promastigotes (resazurin); format: cell-based, Leishmania infantum; conditions: 48 h at 28 °C, three independent experiments
Description: (§1) L. infantum (MHOM/BR/2002/LPC-RPV) promastigotes were maintained in Schneider’s medium supplemented with 10% (v/v) fetal bovine serum (FBS, Gibco) and 100 U/mL penicillin and 100 μg/mL streptomycin at 28 °C. MRC-5 human primary fetal lung fibroblast cells were maintained in RPMI 1640 medium supplemented with 10% heat-inactivated fetal calf serum (FCS) and 25 mM HEPES under a 5% CO2 atmosphere at 37 °C and pH 7.4.
To evaluate the effect of prioritized compounds on parasite viability, 4 × 10^6 promastigotes/mL were incubated in the presence of a series of 11 points from 200–0.195 or 50–0.04 μM plus control (0.1% DMSO) for 48 h at 28 °C to a final volume of 200 μL in 96-well microplate. Next, 20 μL of resazurin solution (0.39 mM) was added to each well and incubated for 4 h, and then fluorescence was recorded (570 nmex/595 nmem) on a microplate reader SpectraMax M5 (Molecular Devices, Sunnyvale, CA). The IC50 from three independent experiments was calculated from the dose–response curve fitted in a four-parameter logistic, nonlinear regression model using GraphPad Prism software (CA) v.8.

[2] = tested on: THP-1; parameters: method as in ref 45 (Wyllie et al.); conditions: Figure 10; ref 45 (Wyllie et al.); cited from earlier work
[3] = tested on: L. donovani; parameters: method as in ref 45 (Wyllie et al.); conditions: Figure 10; ref 45 (Wyllie et al.); cited from earlier work
[4] = In vitro cytotoxicity test on MRC-5 cells (resazurin); format: cell-based, human; conditions: human, MRC-5 primary fetal lung fibroblast cells, pH 7.4, MRC-5 cells, 72 h incubation, resazurin; two independent experiments
Description: as §1
(§2) MRC-5 cells were seeded in 96-well plates at a density of 1 × 10^4 cells/well using 100 μL of medium. After 24 h, compounds were serially diluted in another set of 96-well plates starting from a concentration of 250 μM (11 dilution points plus the control), using 100 μL of complete culture medium per well. Subsequently, 100 μL of these diluted compounds were transferred to the seeded cells. Amphotericin B (Sigma-Aldrich) dissolved in DMSO was used as a control and diluted from an initial concentration of 0.5 μM. After 72 h of incubation, resazurin was added to a final concentration of 45 μM and incubated for 4 h before measuring fluorescence.

[5] = tested on: 3T3; parameters: method as in ref 44 (Khare et al.); conditions: Figure 10; ref 44 (Khare et al.); cited from earlier work
[6] = tested on: macrophage; parameters: method as in ref 44 (Khare et al.); conditions: Figure 10; ref 44 (Khare et al.); cited from earlier work
[7] = tested on: L. donovani; parameters: method as in ref 44 (Khare et al.); conditions: Figure 10; ref 44 (Khare et al.); cited from earlier work
[8] = tested on: MRC-5 human primary fetal lung fibroblast cells; test: In vitro cytotoxicity test on MRC-5 cells (resazurin); format: cell-based; conditions: for SI (selectivity index): ratio of CC50 (MRC-5) to IC50 (L. infantum)
Description: as §1, §2

Structure (SMILES)	IC50 ([1]; Leishmania infantum, 48 h) [µM]	CC50 at 72 h [4] [µM]	also measured
O=C(Nc1ccc(F)c(-c2cn3nc(-c4ccccc4)cnc3n2)c1)N1CCCC1 [compound 7]			CC50 [2]: > 50 µM; IC50 [3]: 0.35 µM
C[C@@H]1[C@H](O)[C@@H](C)/C=C/C=C/C=C/C=C/C=C/C=C/C=C/[C@H](O[C@@H]2O[C@H](C)[C@@H](O)[C@H](N)[C@@H]2O)C[C@@H]2O[C@](O)(C[C@@H](O)C[C@@H](O)[C@H](O)CC[C@@H](O)C[C@@H](O)CC(=O)O[C@H]1C)C[C@H](O)[C@H]2C(=O)O [Amphotericin B, reference compound]	0.079 ± 0.001	> 0.67	
CC(C)OC(=O)Nc1cnc2nc(-c3cc(NC(=O)c4ccco4)ccc3Cl)cn2c1 [GNF2636]			CC50 [5]: 3.5 µM; CC50 [6]: 14.1 µM; IC50 [7]: 0.35 µM
Cc1nc(C)c(C(=O)Nc2ccc(F)c(-c3nc4ncc(-c5ccccn5)cn4n3)c2)o1 [GNF6702]			IC50 [7]: 0.0018 µM
Cc1nc(C)c(C(=O)Nc2ccc(F)c(-c3nc4ncc(-c5ccccc5)cn4n3)c2)o1 [GNF3849]			IC50 [7]: 0.071 µM
O=C(Nc1ccc(Cl)c(-c2nc3ncccc3o2)c1)c1cccs1 [LC-15]	1.5	> 32.4	CC50 ([8]; MRC-5 cells, 72 h incubation, resazurin, two independent experiments): 32.4 ± 8.31 µM; SI (selectivity index) [8]: 30.9; IC50 [1]: 1.05 ± 0.37 µM
Cc1nc2ccc(Cl)cn2c1C(=O)N1CCCC1c1ccccn1 (centres unmarked) [LC-25]	> 100		
O=C(Nc1ccc(F)c(-c2cn3cc(-c4ccccc4)cnc3n2)c1)N1CCCC1 [compound 6]			CC50 [2]: > 50 µM; IC50 [3]: 0.15 µM
Cc1cc(NCc2ccncc2C)nc(N2CCCCC2)n1 [LC-20]	> 100		

Further lines, with some results ahead:

IC50 ([1]; Leishmania infantum, 48 h) [µM]	Structure (SMILES)	CC50 at 72 h [4] [µM]	also measured
> 100	CC(=O)Nc1ccc(S(=O)(=O)Nc2cc(C)nn2-c2ccccn2)cc1 [LC-38]		
> 100	Cc1nc(O)cc(C2CCN(c3nccc(-c4ccccn4)n3)CC2)n1 [LC-27]		
15.6 ± 2.36	Cc1ccc(C2CC(=O)Nc3c2c(C)nn3-c2nc(C)cc(C)n2)cc1 (centres unmarked) [LC-37]	> 250	SI (selectivity index) [8]: >15.9
> 100	O=C(Nc1cccnc1Cl)c1cc(-c2ccc3c(c2)OCO3)on1 [LC-36]		
11.9 ± 1.7	CN1CCC(Nc2nccc(-c3ccccn3)n2)C(Cc2ccccc2)C1 (centres unmarked) [LC-26]	48.4 ± 16.9	
17.1 ± 2.89	Cc1cc(C)nc(-n2nc(C)c3c2NC(=O)CC3c2ccc3c(c2)OCO3)n1 (centres unmarked) [LC-35]	145 ± 21.8	SI (selectivity index) [8]: 8.47
4.51 ± 2.25	Fc1ccc(OCc2nc3cc(Cl)ccc3[nH]2)cc1 [LC-31]	40.7 ± 4.33	SI (selectivity index) [8]: 9.04
